Target: CYP153D17 (Sphingomonas sp. PAMC 26605, UniProt A0ACD6BAR9)
Test: UV-Vis spectral binding titration (substrate binding assay) of purified CYP153D17
Details: 1 μM CYP153D17; for Kd: apparent dissociation constant from titration curves (A390-A420); for Spin Shift (%): shift in heme spin state from low-spin (Soret maximum at 420 nm) to high-spin (390 nm)
Protocol: To determine the binding affinity of CYP153D17, spectral binding titrations were performed with the alkanes (decane and dodecane) and fatty acids (capric acid, lauric acid, and myristic acid). All tested substrates changed the spectrum of CYP153D17, with a shift of the Soret band at 420 to 390 nm, which is typical of the high-spin form (Figure 2), after which the apparent dissociation constants from the titration curves (Kd values) were obtained (Table 1). Dodecane, capric acid, and lauric acid binding to CYP153D17 induced a ≥90% shift in the heme spin state from low-spin (Soret maximum at 420 nm) to high-spin (Soret maximum at 390 nm), whereas decane and myristic acid induced a ≥80% shift in the same heme spin state.
To determine whether CYP153D17 can bind alkanes and fatty acids, a UV-Vis (Ultraviolet-Visible) spectral binding titration assay was performed. Binding of the substrate to CYP153D17 induced a shift of the Soret band of the CYP absorption spectrum from A420 to A390 [30]. Alkanes (decane and dodecane) and fatty acids (capric acid, lauric acid, and myristic acid) were dissolved in ethanol to prepare stock solutions of different concentrations (0.4–5 mM) for each substrate. Binding of substrate to CYP153D17 was carried out by the consecutive addition of 1-μL aliquots from the stock solutions to 1 mL of 1 μM CYP153D17 solution, and the UV–Vis spectra of the mixture were recorded. To calculate Kd, the difference between adsorption at A390 and A420 was calculated, corrected with the A390-to-A420 value at 0 M substrate, and plotted against the substrate concentrations. The data were fitted to equations as described by Funhoff et al..

Chain of CYP153D17 (A0ACD6BAR9 1-407): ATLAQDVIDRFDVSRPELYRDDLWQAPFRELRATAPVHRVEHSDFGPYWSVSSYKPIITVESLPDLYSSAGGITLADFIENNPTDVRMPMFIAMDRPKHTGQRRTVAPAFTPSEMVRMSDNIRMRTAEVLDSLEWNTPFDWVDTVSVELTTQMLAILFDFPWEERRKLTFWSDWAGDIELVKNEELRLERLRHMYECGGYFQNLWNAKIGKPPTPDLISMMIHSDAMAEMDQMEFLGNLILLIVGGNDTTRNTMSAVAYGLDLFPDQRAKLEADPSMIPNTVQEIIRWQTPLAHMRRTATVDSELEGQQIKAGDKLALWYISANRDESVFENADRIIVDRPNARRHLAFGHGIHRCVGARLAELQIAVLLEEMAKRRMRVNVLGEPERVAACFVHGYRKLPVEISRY

SMILES	Kd [µM]	Spin Shift (%)	Spin Shift (%) (listed as capric acid)	Spin Shift (%) (listed as decane)	Spin Shift (%) (listed as lauric acid)	Spin Shift (%) (listed as myristic acid)
CCCCCCCCCC(=O)O [Capric acid, capric acid]	0.46 ± 0.41	≥90	≥ 90			
CCCCCCCCCC [Decane, decane]	0.59 ± 0.69	≥80		≥ 80		
CCCCCCCCCCCC [Dodecane, dodecane]	0.42 ± 0.14					
CCCCCCCCCCCC(=O)O [Lauric acid, lauric acid]	0.49 ± 0.7	≥90			≥ 90	
CCCCCCCCCCCCCC(=O)O [Myristic acid, myristic acid]	0.54 ± 0.33	≥80				≥ 80

Reference: PMC5187867, “Crystal Structure of a Putative Cytochrome P450 Alkane Hydroxylase (CYP153D17) from Sphingomonas sp. PAMC 26605 and Its Conformational Substrate Binding” (International Journal of Molecular Sciences, 2016)
